Laboratory results published in patent US12076340B2, “Use of trientine to deliver copper to ischemic tissue” (INNOLIFE CO., LTD., priority 2015, dated 2024).

Assays:
[1] = tested on: Sprague-Dawley rats with pathologic cardiac hypertrophy
Procedure: This example describes an in vivo experiment for assessing efficacy of the trientine therapy in Sprague-Dawley rats with pathologic cardiac hypertrophy. The rat model of pathologic cardiac hypertrophy was established by an ascending aortic constriction operation.
The rats were sedated by intraperitoneal injection of 10% chloral hydrate ([…]) for echocardiography measurements. At 4 months after the aortic constriction operation and at 1, 3 and 5 weeks after the trientine treatment, a series of echocardiograms were performed using an 11.5-MHz transducer (Vivid 7 Dimension, GE). Interventricular septum depth (IVSD) and left ventricular posterior wall depth (LVPWD) were obtained using two-dimensional mode by taking measurements of the short-axis cross-sectional areas and the left ventricular length.
The ejection fraction (EF) and shortening fraction (FS) of the left ventricular were evaluated with the Simpson's single-plane method. Left-ventricular end-diastolic volume (LVEDV), end-systolic volume (LVESV), end-diastolic interior diameter (LVIDd) and end-systolic interior diameter (LVIDs) were directly recorded. EF and FS were calculated according to the following formulas: EF=(LVEDV−LVESV)/LVEDV×100%, FS=(LVIDd−LVIDs)/LVIDd×100%
(§1) The aortic ascending constriction (AAC) group was divided into three groups: a control group (NS group) and two trientine treatment groups (Tr(H) group and Tr(L) group). Rats in the sham group were subjected to the same surgical procedure except for the steps of the aortic ascending constriction. The sham group rats were also divided into three groups: a control group (NS group) and two trientine treatment groups (Tr(H) group and Tr(L) group). Rats in the control groups were treated with a saline solution. Trientine was administered orally twice a day in the trientine treatment groups. Two doses of trientine (dose calculated based on trientine dihydrochloride) were administered, […]. The treatment was continued for 6 weeks.
(§2) Cardiac morphology and functions were evaluated by echocardiography, and plasma copper concentrations were measured (i.e. blood detection) to assess therapeutic efficacy of the trientine treatments according to the schedule shown in FIG. 7.

[2] = tested on: Sprague-Dawley rats with pathologic cardiac hypertrophy; settings: AAC rats, trientine treatment for 6 weeks, AAC-Tr(H) and AAC-Tr(L) combined; FIG. 10A
Procedure: as §1, §2
Tissue samples were freshly frozen and stored at −80° C. before lyophilization. […] Ultrapure water was added to each vessel to dilute HNO3 to 2% for subsequent analyses of copper concentrations.

[3] = tested on: Rhesus monkey model of heart failure; settings: 18 mg/kg/day oral two times daily, eight weeks; untreated group decreased; FIG. 12
Procedure: The ejection fraction (EF) of the left ventricular was evaluated with the Simpson's single-plane method. Left-ventricular end-diastolic volume (LVEDV) and end-systolic volume (LVESV) were directly recorded, and EF was calculated using as follows: EF=(LVEDV−LVESV)/LVEDV×100%.
(§3) Trientine treatment was subsequently conducted. In the trientine-treated group, trientine was administered to each monkey orally two times daily. The dose of trientine was 18 mg/kg/day. This treatment was continued for eight weeks. […] Cardiac functions and morphology were evaluated according to the schedule shown in FIG. 11 to assess therapeutic efficacy of trientine.

[4] = tested on: Rhesus monkey model of heart failure; settings: 18 mg/kg/day oral, eight weeks; FIG. 13
Procedure: as §3
(§4) Tissue samples were freshly frozen and stored at −80° ° C. before lyophilization. […] Ultrapure water was added to each vessel to dilute HNO3 to 2% for subsequent analyses of copper concentrations. Copper concentrations were determined by graphite furnace atomic absorption spectrophotometry (ICE3500, Thermo) according to the program shown in Table 1 of Example 3.
Copper concentration in the myocardium was determined by atomic absorption spectroscopy.

[5] = tested on: mouse model of myocardial ischemic infarction; settings: 4 weeks
Procedure: (§5) In this experiment, a mouse model of myocardial ischemic infarction was established by a permanent coronary artery ligation operation.
(§6) Trientine treatment was administered to four groups of modelized mice via intragastric route twice a day at a dose of 16.75, 33.49, 55.94, or 78.25 mg/kg per day. This treatment was continued for 4 weeks.
Cardiac functions were evaluated by echocardiography to assess therapeutic efficacy of trientine. All mice were subjected to transthoracic echocardiographic evaluation with a 12 MHz transducer (i13L, Vivid7, GE Ultrasound). The ejection fraction (EF) of the left ventricular was evaluated with the Simpson's single-plane method. Left-ventricular end-diastolic volume (LVEDV) and end-systolic volume (LVESV) were directly recorded, and EF was calculated using as follows: EF=(LVEDV−LVESV)/LVEDV×100%.

[6] = tested on: mouse model of myocardial ischemic infarction
Procedure: as §5, §6
as §4, with “−80°” for “−80° °”

[7] = AAC rats, oral twice a day, after 3 weeks of treatment

NCCNCCNCCN [trientine, triethylenetetramine]
IVSD as compared to the sham groups ([1]; AAC rats treated for 5 weeks): nearly normal | LVPWD as compared to the sham groups ([1]; AAC rats treated for 5 weeks): nearly normal | interventricular septum depth (IVSD) [1, 7]: decreased significantly | left ventricular posterior wall depth (LVPWD) [1, 7]: decreased significantly | IVSD values over time (continuous monitoring) ([1]; treated AAC groups, control group increased steadily, FIG. 8A): significantly downward trend | LVPWD values over time (continuous monitoring) ([1]; treated AAC groups, control group increased steadily, FIG. 8B): significantly downward trend | left ventricular ejection fraction (EF) ([1]; trientine-treated groups, untreated groups showed significant downward trend, FIG. 9A): did not fluctuate very significantly | left ventricular shortening fraction (FS) ([1]; trientine-treated groups, untreated groups showed significant downward trend, FIG. 9B): did not fluctuate very significantly | copper concentrations in the heart tissues [2]: increased | left ventricular ejection fraction [3]: increased significantly | copper concentration, border zone, compared to untreated group [4]: increased significantly | copper concentration, infarcted area, compared to untreated group [4]: increased significantly | copper concentration, remote areas, treated vs untreated group [4]: comparable | dose at which the improvement ratio of ejection fraction reached a peak ([5]; doses tested 16.75, 33.49, 55.94, 78.25 mg/kg per day): 33.49 mg/kg per day | improvement of left ventricular ejection fraction at higher doses ([5]; intragastric twice a day, FIG. 15): decreased | cardiac function as measured by left ventricular ejection fraction, lower doses ([5]; intragastric twice a day, 16.75-78.25 mg/kg per day, FIG. 15): improved | dose at which copper content in the infarct area was the highest ([6]; doses tested 16.75, 33.49, 55.94, 78.25 mg/kg per day, 4 weeks): 33.49 mg/kg per day | copper content of the infarcted area or ejection fraction at higher doses than 33.49 mg/kg per day ([6]; higher trientine doses tested (55.94, 78.25 mg/kg per day)): no further improvement | copper concentration in the infarcted area ([6]; intragastric twice a day, 4 weeks, FIG. 16): increased significantly
